Columns and labels:
Assay type in all cases: in vivo
Abutilon theophrasti = experiment: Greenhouse post-emergence herbicidal activity, ABUTH; conditions: ABUTH; for pest or weed control at 1000 g/ha: 1 kg/ha
Source text: (§1) The culture containers used were plastic flowerpots containing loamy sand with approximately 3.0% of humus as the substrate. The seeds of the test plants were sown separately for each species.
(§2) For the post-emergence treatment, the test plants were first grown to a height of 3 to 15 cm, depending on the plant habit, and only then treated with the active ingredients which had been suspended or emulsified in water. For this purpose, the test plants were either sown directly and grown in the same containers, or they were first grown separately as seedlings and transplanted into the test containers a few days prior to treatment.
(§3) Depending on the species, the plants were kept at 10-25° C. or 20-35° C., respectively.
(§4) The test period extended over 2 to 4 weeks. During this time, the plants were tended, and their response to the individual treatments was evaluated.
(§5) Evaluation was carried out using a scale from 0 to 100. 100 means no emergence of the plants, or complete destruction of at least the aerial moieties, and 0 means no damage, or normal course of growth. A good herbicidal activity is given at values of at least 70 and a very good herbicidal activity is given at values of at least 85.

Amaranthus retroflexus = experiment: Greenhouse post-emergence herbicidal activity, AMARE; conditions: AMARE; for pest or weed control at 63 g/ha: 0.063 kg/ha; for pest or weed control at 1000 g/ha: 1 kg/ha; for pest or weed control at 125 g/ha: 0.125 kg/ha
Outline: (§6)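 Damage was rated on a 0-100 scale, where 100 means full kill of aerial parts or no emergence, after a 2-4 week trial at species-dependent 10-25° C or 20-35° C. Compounds, suspended or emulsified in water, were sprayed once plants in humus-containing loamy sand had reached 3-15 cm.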

Chenopodium album = experiment: Greenhouse post-emergence herbicidal activity, CHEAL; conditions: scale 0 to 100; for pest or weed control at 31 g/ha: 0.031 kg/ha; for pest or weed control at 63 g/ha: 0.063 kg/ha; for pest or weed control at 125 g/ha: 0.125 kg/ha
Outline: as §6

Cirsium arvense = experiment: Greenhouse post-emergence herbicidal activity, CIRAR; conditions: CIRAR; for pest or weed control at 31 g/ha: 0.031 kg/ha, scale 0 to 100
Source text: as §1, §2, §3, §4, §5

Echinocloa crus-galli = experiment: Greenhouse post-emergence herbicidal activity, ECHCG; conditions: Echinochloa crus-galli, ECHCG; for pest or weed control at 1000 g/ha: 1 kg/ha
Outline: as §6

Ipomoea hederacea = experiment: Greenhouse post-emergence herbicidal activity, IPOHE; conditions: 0.125 kg/ha, scale 0 to 100
Source text: as §1, §2, §3, §4, §5

Oryza sativa = experiment: Greenhouse post-emergence herbicidal activity on crop ORYSA (rice); conditions: ORYSA (rice, crop), scale 0 to 100
Outline: as §6

Sesbania herbacea = experiment: Greenhouse post-emergence herbicidal activity, SEBEX; conditions: 0.125 kg/ha, scale 0 to 100
Source text: as §1, §2, §3, §4, §5

Zea mays = experiment: Greenhouse post-emergence herbicidal activity on crop ZEAMX (corn, maize); set-up: key: 0 = no damage/normal growth, 100 = no emergence or complete destruction; conditions: ZEAMX (corn, crop), scale 0 to 100
Outline: as §6

Ambrosia artemisiifolia = experiment: Greenhouse post-emergence herbicidal activity, AMBEL; conditions: scale 0 to 100
Source text: as §1, §2, §3, §4, §5

Capsella bursa-pastoris = experiment: Greenhouse post-emergence herbicidal activity, CAPBP; conditions: 0.125 kg/ha, scale 0 to 100
Source text: as §1, §2, §3, §4, §5

Polygonum aviculare = experiment: Greenhouse post-emergence herbicidal activity, POLAV; conditions: 0.25 kg/ha, scale 0 to 100
Source text: as §1, §2, §3, §4, §5

Setaria faberi = experiment: Greenhouse post-emergence herbicidal activity, SETFA; conditions: scale 0 to 100
Source text: as §1, §2, §3, §4, §5

Brachiaria plantaginea = experiment: Greenhouse post-emergence herbicidal activity, BRAPL; conditions: scale 0 to 100
Source text: as §1, §2, §3, §4, §5

Eriochloa villosa = experiment: Greenhouse post-emergence herbicidal activity, ERBVI; conditions: scale 0 to 100
Source text: as §1, §2, §3, §4, §5

Veronica arvensis = experiment: Greenhouse post-emergence herbicidal activity, VERAR; conditions: 0.031 kg/ha, scale 0 to 100
Source text: as §1, §2, §3, §4, §5

Panicum miliaceum = experiment: Greenhouse post-emergence herbicidal activity, PANMI; conditions: 0.031 kg/ha, scale 0 to 100
Source text: as §1, §2, §3, §4, §5

[1] = 2 kg/ha, scale 0 to 100, read-out: Herbicidal activity

SMILES	pest or weed control at 1000 g/ha (Abutilon theophrasti; scale 0 to 100)	pest or weed control at 63 g/ha (Amaranthus retroflexus; scale 0 to 100)	pest or weed control at 1000 g/ha (Amaranthus retroflexus; scale 0 to 100)	pest or weed control at 31 g/ha (Chenopodium album)	pest or weed control at 63 g/ha (Chenopodium album)	pest or weed control at 125 g/ha (Chenopodium album)	pest or weed control at 31 g/ha (Cirsium arvense)	pest or weed control at 1000 g/ha (Echinocloa crus-galli; scale 0 to 100)	Herbicidal activity (Oryza sativa; 0.031 kg/ha)	Herbicidal activity (Oryza sativa; 0.063 kg/ha)	Herbicidal activity (Oryza sativa; 0.125 kg/ha)	Herbicidal activity (Zea mays; 0.031 kg/ha)	Herbicidal activity (Zea mays; 0.063 kg/ha)	Herbicidal activity (Zea mays; 0.125 kg/ha)	pest or weed control at 125 g/ha (Amaranthus retroflexus; scale 0 to 100)	other results
CN(C)S(=O)(=O)Oc1c(Cl)ccc(C2=C(O)c3ncccc3C(C)(C)S2(=O)=O)c1Cl [I-23]	80%	70%	100%	85%	95%	98%	75%	95%	0	0	0	0	0	15	–	pest or weed control at 63 g/ha (Cirsium arvense; 0.063 kg/ha, scale 0 to 100, read-out: Herbicidal activity): 80%; Herbicidal activity (Ipomoea hederacea): 95; Herbicidal activity (Sesbania herbacea): 98
CC1(C)c2cccnc2C(O)=C(c2ccc(Cl)c(N(C3CC3)S(C)(=O)=O)c2Cl)S1(=O)=O [I-25, N-cyclopropyl-N-[2,6-dichloro-3-(8-hydroxy-5,5-dimethyl-6,6-dioxo-thiopyrano[4,3-b]pyridin-7-yl)phenyl]methanesulfonamide]	–	98%	–	–	95%	–	95%	–	–	35	–	5	–	20	98%	pest or weed control at 31 g/ha (Amaranthus retroflexus; 0.031 kg/ha, scale 0 to 100): 95%; pest or weed control at 250 g/ha (Amaranthus retroflexus; 0.25 kg/ha, scale 0 to 100): 98%; Herbicidal activity (Ambrosia artemisiifolia; 0.25 kg/ha): 100; Herbicidal activity (Capsella bursa-pastoris): 95; Herbicidal activity (Oryza sativa; 0.25 kg/ha): 35; Herbicidal activity (Polygonum aviculare): 100; Herbicidal activity (Setaria faberi; 0.031 kg/ha): 95; Herbicidal activity (Setaria faberi; 0.063 kg/ha): 95; Herbicidal activity (Setaria faberi; 0.125 kg/ha): 95
Cc1c(C2=C(O)c3ncccc3CS2(=O)=O)ccc(Cl)c1N(C)S(C)(=O)=O [I-26, N-[6-chloro-3-(8-hydroxy-6,6-dioxo-5H-thiopyrano[4,3-b]pyridin-7-yl)-2-methyl-phenyl]-N-methyl-methanesulfonamide]	–	85%	–	–	–	98%	–	–	–	–	45	–	15	15	90%	pest or weed control at 2000 g/ha (Abutilon theophrasti; [1]): 100%; pest or weed control at 2000 g/ha (Amaranthus retroflexus; [1]): 100%; Herbicidal activity (Brachiaria plantaginea; 0.031 kg/ha): 90; Herbicidal activity (Brachiaria plantaginea; 0.063 kg/ha): 90; pest or weed control at 2000 g/ha (Echinocloa crus-galli; [1]): 100%; Herbicidal activity (Eriochloa villosa; 0.031 kg/ha): 90; Herbicidal activity (Eriochloa villosa; 0.063 kg/ha): 95; Herbicidal activity (Eriochloa villosa; 0.125 kg/ha): 95; Herbicidal activity (Veronica arvensis): 90
CN(c1c(Cl)ccc(C2=C(O)c3ncccc3CS2(=O)=O)c1Cl)S(=O)(=O)C1CC1 [I-27, N-[2,6-dichloro-3-(8-hydroxy-6,6-dioxo-5H-thiopyrano[4,3-b]pyridin-7-yl)phenyl]-N-methyl-cyclopropanesulfonamide]	95%	–	100%	100%	100%	100%	–	98%	40	–	–	15	20	–	–	pest or weed control at 125 g/ha (Abutilon theophrasti; 0.125 kg/ha, scale 0 to 100): 80%; Herbicidal activity (Ambrosia artemisiifolia; 0.031 kg/ha): 70; Herbicidal activity (Ambrosia artemisiifolia; 0.063 kg/ha): 75; pest or weed control at 63 g/ha (Echinocloa crus-galli; 0.063 kg/ha, scale 0 to 100): 98%; pest or weed control at 125 g/ha (Echinocloa crus-galli; 0.125 kg/ha, scale 0 to 100): 98%; Herbicidal activity (Panicum miliaceum): 75
